In patent US20240043404A1 (AbbVie Inc., priority 2009, published 2024):

Tested on: RS4;11 cells
Experiment: RS4;11 cell viability assay (CellTiter Glo);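 further: acute lymphoblastic leukemia line RS4,11, EC50 derived from percentage of viable cells after treatment relative to untreated controls, cell killing taken as a measure of Bcl-2 inhibition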
Assay type: cell-based, human
Settings: Homo sapiens, RS4-11, 48 h, 50,000 cells per well, 10% human serum, 48 hours; read-out: RS4; 11 EC50 Values
Procedure: The acute lymphoblastic leukemia (ALL) cell line RS4;11 was used as the primary human cell line to assess the cellular activity of Bcl-2 selective agents in vitro and their efficacy in vivo.
Cell cytotoxicity EC50 values were assessed using CellTiter Glo (Promega) according to the manufacturer's recommendations. The EC50 values were determined as a percentage of viable cells following treatment compared to the untreated control cells.

Structure (SMILES) | EC50 [nM]
CC1(C)CCC(CN2CCN(c3ccc(C(=O)NS(=O)(=O)c4ccc(NC5CCN(C6COC6)CC5)c([N+](=O)[O-])c4)c(Oc4cnc5[nH]ccc5c4)c3)CC2)=C(c2ccc(Cl)cc2)C1 [Example 139, 4-(4-{[2-(4-chlorophenyl)-4,4-dimethylcyclohex-1-en-1-yl]methyl}piperazin-1-yl)-N-({3-nitro-4-[(1-oxetan-3-ylpiperidin-4-yl)amino]phenyl}sulfonyl)-2-(1H-pyrrolo[2,3-b]pyridin-5-yloxy)benzamide] | 16.8
CC1(C)CCC(CN2CCN(c3ccc(C(=O)NS(=O)(=O)c4ccc(NCC5CN(CC(F)F)CCO5)c([N+](=O)[O-])c4)c(Oc4cnc5[nH]ccc5c4)c3)CC2)=C(c2ccc(Cl)cc2)C1 (stereo not shown) [Example 166, 4-(4-{[2-(4-chlorophenyl)-4,4-dimethylcyclohex-1-en-1-yl]methyl}piperazin-1-yl)-N-{[4-({[4-(2,2-difluoroethyl)morpholin-2-yl]methyl}amino)-3-nitrophenyl]sulfonyl}-2-(1H-pyrrolo[2,3-b]pyridin-5-yloxy)benzamide] | 11.8
CC1(C)CCC(CN2CCN(c3ccc(C(=O)NS(=O)(=O)c4ccc(NC5CCN(C6CC6)CC5)c(S(=O)(=O)C(F)(F)F)c4)c(Oc4cnc5[nH]ccc5c4)c3)CC2)=C(c2ccc(Cl)cc2)C1 [Example 190, 4-(4-{[2-(4-chlorophenyl)-4,4-dimethylcyclohex-1-en-1-yl]methyl}piperazin-1-yl)-N-({4-[(1-cyclopropylpiperidin-4-yl)amino]-3-[(trifluoromethyl)sulfonyl]phenyl}sulfonyl)-2-(1H-pyrrolo[2,3-b]pyridin-5-yloxy)benzamide] | 551
CN(C)CC(=O)N1CCO[C@H](COc2ncc(S(=O)(=O)NC(=O)c3ccc(N4CCN(CC5=C(c6ccc(Cl)cc6)CC(C)(C)CC5)CC4)cc3Oc3cnc4[nH]ccc4c3)cc2Cl)C1 [Example 245, N-[(5-chloro-6-{[(2S)-4-(N,N-dimethylglycyl)morpholin-2-yl]methoxy}pyridin-3-yl)sulfonyl]-4-(4-{[2-(4-chlorophenyl)-4,4-dimethylcyclohex-1-en-1-yl]methyl}piperazin-1-yl)-2-(1H-pyrrolo[2,3-b]pyridin-5-yloxy)benzamide] | 83.6
CC1(C)CCC(CN2CCN(c3ccc(C(=O)NS(=O)(=O)c4cc(F)c(NCC5CCOCC5)c(Cl)c4)c(Oc4cnc5[nH]ccc5c4)c3)CC2)=C(c2ccc(Cl)cc2)C1 [Example 86, N-({3-chloro-5-fluoro-4-[(tetrahydro-2H-pyran-4-ylmethyl)amino]phenyl}sulfonyl)-4-(4-{[2-(4-chlorophenyl)-4,4-dimethylcyclohex-1-en-1-yl]methyl}piperazin-1-yl)-2-(1H-pyrrolo[2,3-b]pyridin-5-yloxy)benzamide] | 1020
CN(C)CCCOc1ccc(CNc2ccc(S(=O)(=O)NC(=O)c3ccc(N4CCN(CC5=C(c6ccc(Cl)cc6)CC(C)(C)CC5)CC4)cc3Oc3cnc4[nH]ccc4c3)cc2[N+](=O)[O-])cc1 [Example 197, 4-(4-{[2-(4-chlorophenyl)-4,4-dimethylcyclohex-1-en-1-yl]methyl}piperazin-1-yl)-N-{[4-({4-[3-(dimethylamino)propoxy]benzyl}amino)-3-nitrophenyl]sulfonyl}-2-(1H-pyrrolo[2,3-b]pyridin-5-yloxy)benzamide] | 12.5
CC1(C)CCC(CN2CCN(c3ccc(C(=O)NS(=O)(=O)c4ccc(N[C@@H]5CCN(S(C)(=O)=O)C5)c([N+](=O)[O-])c4)c(Oc4cnc5[nH]ccc5c4)c3)CC2)=C(c2ccc(Cl)cc2)C1 [Example 149, 4-(4-{[2-(4-chlorophenyl)-4,4-dimethylcyclohex-1-en-1-yl]methyl}piperazin-1-yl)-N-[(4-{[(3R)-1-(methylsulfonyl)pyrrolidin-3-yl]amino}-3-nitrophenyl)sulfonyl]-2-(1H-pyrrolo[2,3-b]pyridin-5-yloxy)benzamide] | 13.5
CC1(C)CCC(CN2CCN(c3ccc(C(=O)NS(=O)(=O)c4cnc(NCC5CN(C6CC6)CCO5)c(Cl)c4)c(Oc4cnc5[nH]ccc5c4)c3)CC2)=C(c2ccc(Cl)cc2)C1 (stereo not shown) [Example 335, N-[(5-chloro-6-{[(4-cyclopropylmorpholin-2-yl)methyl]amino}pyridin-3-yl)sulfonyl]-4-(4-{[2-(4-chlorophenyl)-4,4-dimethylcyclohex-1-en-1-yl]methyl}piperazin-1-yl)-2-(1H-pyrrolo[2,3-b]pyridin-5-yloxy)benzamide] | 270
CC1(C)CCC(CN2CCN(c3ccc(C(=O)NS(=O)(=O)c4ccc(OCC5(F)CCOCC5)c(Cl)c4)c(Oc4cnc5[nH]ccc5c4)c3)CC2)=C(c2ccc(Cl)cc2)C1 [Example 286, N-({3-chloro-4-[(4-fluorotetrahydro-2H-pyran-4-yl)methoxy]phenyl}sulfonyl)-4-(4-{[2-(4-chlorophenyl)-4,4-dimethylcyclohex-1-en-1-yl]methyl}piperazin-1-yl)-2-(1H-pyrrolo[2,3-b]pyridin-5-yloxy)benzamide] | 34.5
O=C(NS(=O)(=O)c1ccc(N[C@H]2CC[C@H](N3CCOCC3)CC2)c([N+](=O)[O-])c1)c1ccc(N2CCN(CC3=C(c4ccc(Cl)cc4)CCC4(CCCC4)C3)CC2)cc1Oc1cnc2[nH]ccc2c1 [Example 71, Trans-4-(4-{[8-(4-chlorophenyl)spiro[4.5]dec-7-en-7-yl]methyl}piperazin-1-yl)-N-({4-[(4-morpholin-4-ylcyclohexyl)amino]-3-nitrophenyl}sulfonyl)-2-(1H-pyrrolo[2,3-b]pyridin-5-yloxy)benzamide] | 91.6
CC1(C)CCC(CN2CCN(c3ccc(C(=O)NS(=O)(=O)c4cnc(OCC5CCOCC5)c(Cl)c4)c(Oc4cnc5[nH]ccc5c4)c3)CC2)=C(c2ccc(Cl)cc2)C1 [Example 40, 4-(4-{[2-(4-chlorophenyl)-4,4-dimethylcyclohex-1-en-1-yl]methyl}piperazin-1-yl)-N-{[5-chloro-6-(tetrahydro-2H-pyran-4-ylmethoxy)pyridin-3-yl]sulfonyl}-2-(1H-pyrrolo[2,3-b]pyridin-5-yloxy)benzamide] | 99.7
CC1(C)CCC(CN2CCN(c3ccc(C(=O)NS(=O)(=O)c4ccc(N[C@@H]5CCN(C(CF)CF)C5)c(S(=O)(=O)C(F)(F)F)c4)c(Oc4cnc5[nH]ccc5c4)c3)CC2)=C(c2ccc(Cl)cc2)C1 [Example 225, 4-(4-{[2-(4-chlorophenyl)-4,4-dimethylcyclohex-1-en-1-yl]methyl}piperazin-1-yl)-N-[(4-{[(3R)-1-(1,3-difluoropropan-2-yl)pyrrolidin-3-yl]amino}-3-[(trifluoromethyl)sulfonyl]phenyl)sulfonyl]-2-(1H-pyrrolo[2,3-b]pyridin-5-yloxy)benzamide] | 560
CC1(C)CCC(CN2CCN(c3ccc(C(=O)NS(=O)(=O)c4cc(F)c(NCC5CCOCC5)cc4Cl)c(Oc4cnc5[nH]ccc5c4)c3)CC2)=C(c2ccc(Cl)cc2)C1 [Example 54, N-({2-chloro-5-fluoro-4-[(tetrahydro-2H-pyran-4-ylmethyl)amino]phenyl}sulfonyl)-4-(4-{[2-(4-chlorophenyl)-4,4-dimethylcyclohex-1-en-1-yl]methyl}piperazin-1-yl)-2-(1H-pyrrolo[2,3-b]pyridin-5-yloxy)benzamide] | 1920
CN(C)CC(=O)N1CCO[C@@H](COc2ncc(S(=O)(=O)NC(=O)c3ccc(N4CCN(CC5=C(c6ccc(Cl)cc6)CC(C)(C)CC5)CC4)cc3Oc3cnc4[nH]ccc4c3)cc2Cl)C1 [Example 247, N-[(5-chloro-6-{[(2R)-4-(N,N-dimethylglycyl)morpholin-2-yl]methoxy}pyridin-3-yl)sulfonyl]-4-(4-{[2-(4-chlorophenyl)-4,4-dimethylcyclohex-1-en-1-yl]methyl}piperazin-1-yl)-2-(1H-pyrrolo[2,3-b]pyridin-5-yloxy)benzamide] | 93
CC1(C)CCC(CN2CCN(c3ccc(C(=O)NS(=O)(=O)c4ccc(N[C@@H]5CCOC5)c([N+](=O)[O-])c4)c(Oc4cnc5[nH]ccc5c4)c3)CC2)=C(c2ccc(Cl)cc2)C1 [Example 238, 4-(4-{[2-(4-chlorophenyl)-4,4-dimethylcyclohex-1-en-1-yl]methyl}piperazin-1-yl)-N-({3-nitro-4-[(3R)-tetrahydrofuran-3-ylamino]phenyl}sulfonyl)-2-(1H-pyrrolo[2,3-b]pyridin-5-yloxy)benzamide] | 103
CC1(C)CCC(CN2CCN(c3ccc(C(=O)NS(=O)(=O)c4ccc(OCC5CN(C6CC6)CCO5)c(Cl)c4)c(Oc4cnc5[nH]ccc5c4)c3)CC2)=C(c2ccc(Cl)cc2)C1 (stereo not shown) [Example 331, N-({3-chloro-4-[(4-cyclopropylmorpholin-2-yl)methoxy]phenyl}sulfonyl)-4-(4-{[2-(4-chlorophenyl)-4,4-dimethylcyclohex-1-en-1-yl]methyl}piperazin-1-yl)-2-(1H-pyrrolo[2,3-b]pyridin-5-yloxy)benzamide] | 926
CC(=O)N1CCC(CNc2ccc(S(=O)(=O)NC(=O)c3ccc(N4CCN(CC5=C(c6ccc(Cl)cc6)CC(C)(C)CC5)CC4)cc3Oc3cnc4[nH]ccc4c3)cc2[N+](=O)[O-])C1 (stereo not shown) [Example 153, N-[(4-{[(1-acetylpyrrolidin-3-yl)methyl]amino}-3-nitrophenyl)sulfonyl]-4-(4-{[2-(4-chlorophenyl)-4,4-dimethylcyclohex-1-en-1-yl]methyl}piperazin-1-yl)-2-(1H-pyrrolo[2,3-b]pyridin-5-yloxy)benzamide] | 17.2
CC1(C)CCC(CN2CCN(c3ccc(C(=O)NS(=O)(=O)c4ccc(NCC5(N6CCOCC6)CCCCC5)c([N+](=O)[O-])c4)c(Oc4cnc5[nH]ccc5c4)c3)CC2)=C(c2ccc(Cl)cc2)C1 [Example 99, 4-(4-{[2-(4-chlorophenyl)-4,4-dimethylcyclohex-1-en-1-yl]methyl}piperazin-1-yl)-N-[(4-{[(1-morpholin-4-ylcyclohexyl)methyl]amino}-3-nitrophenyl)sulfonyl]-2-(1H-pyrrolo[2,3-b]pyridin-5-yloxy)benzamide] | 1390
CC1(C)CCCC(c2ccc(Cl)cc2)=C1CN1CCN(c2ccc(C(=O)NS(=O)(=O)c3ccc(NCC4CCOCC4)c([N+](=O)[O-])c3)c(Oc3cnc4[nH]ccc4c3)c2)CC1 [Example 101, 4-(4-{[2-(4-chlorophenyl)-6,6-dimethylcyclohex-1-en-1-yl]methyl}piperazin-1-yl)-N-({3-nitro-4-[(tetrahydro-2H-pyran-4-ylmethyl)amino]phenyl}sulfonyl)-2-(1H-pyrrolo[2,3-b]pyridin-5-yloxy)benzamide] | 299
